Assay results reported in patent US10881110B2, “Herbicidal compositions comprising isoxazolo[5,4-b]pyridines” (BASF SE, priority 2014, dated 2021).

What was measured:
Test in all cases: greenhouse post-emergence herbicidal test
[1] = system: ALOMY; format: in vivo, Alopecurus myosuroides; parameters: key to herbicidal activity against ALOMY found: rating on a scale from 0 to 100; conditions: post emergence; application rate a.i.: I.1 250 g/ha, B.193 15 g/ha, alone or as mixture (composition 1.193)
Outline: (§1)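 Once 1 to 15 cm tall, potted seedlings in loamy sand received the active compounds emulsified or suspended in water. After 20 days, damage versus untreated growth was graded on a 0–100 scale, and synergy judged against Colby's additive value E.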

[2] = system: ECHCG; format: in vivo, Echinochloa crus-galli; parameters: key to herbicidal activity against ECHCG found / herbicidal activity against ECHCH found: scale 0 to 100; conditions: post emergence; application rate a.i.: I.1 250 g/ha, B.193 15 g/ha, alone or as mixture (composition 1.193)
Outline: as §1

[3] = system: GERDI; format: in vivo, Geranium dissectum; parameters: key to herbicidal activity against GERDI found: rating on a scale from 0 to 100; conditions: post emergence
Outline: as §1

[4] = system: DIGSA; format: in vivo, Digitaria sanguinalis
Protocol: (§2) The culture containers used were plastic pots containing medium loamy sand with approximately 4.6% of humus and 69.9% sand as substrate. The seeds of the test plants were sown separately for each species.
(§3) For the post-emergence treatment, the test plants were grown to a plant height of from 1 to 15 cm, depending on the plant habit, and only then treated with the active compounds which had been suspended or emulsified in water. To this end, the test plants were either sown directly, and grown in the same containers, or they were first grown separately as seedlings and transplanted into the test containers a few days prior to treatment.
(§4) Depending on the species, the plants were kept at 10-25° C. and 20-35° C., respectively.
(§5) The test period extended over 1 to 3 weeks. During this time, the plants were tended and their response to the individual treatments was evaluated 20 days after treatment except mentioned otherwise.
(§6) Evaluation was carried out using a scale from 0 to 100. 100 means no emergence of the plants, or complete destruction of at least the above-ground parts, and 0 means no damage or normal course of growth.
(§7) The respective stated components A and B, and, if appropriate, C, were formulated as a 10% by weight strength emulsion concentrate and, with addition of the amount of solvent system, introduced into the spray liquor used for applying the active compound. In the examples, the solvent used was water.
(§8) In the examples below, using the method of S. R. Colby (1967) “Calculating synergistic and antagonistic responses of herbicide combinations”, Weeds 15, p. 22 ff., the value E, which is expected if the activity of the individual active compounds is only additive, was calculated. E=X+Y−(X·Y/100)

[5] = system: MATCH; format: in vivo, Matricaria recutita; parameters: key to herbicidal activity against MATCH found: rating on a scale from 0 to 100; conditions: post emergence
Outline: as §1

[6] = system: AMBEL; format: in vivo, Ambrosia artemisiifolia; parameters: key: rating on a scale from 0 to 100
Protocol: as §2, §3, §4, §5, §6, §7, §8

[7] = system: POLPE; format: in vivo, Persicaria maculosa; parameters: key: scale 0 to 100; conditions: 20 g/ha a.i.
Protocol: as §2, §3, §4, §5, §6, §7, §8

[8] = system: AMARE; format: in vivo, Amaranthus retroflexus
Protocol: as §2, §3, §4, §5, §6, §7, §8

[9] = system: CONAR; format: in vivo, Convolvulus arvensis; parameters: key: rating on a scale from 0 to 100
Protocol: as §2, §3, §4, §5, §6, §7, §8

[10] = system: CHEAL; format: in vivo, Chenopodium album
Protocol: as §2, §3, §4, §5, §6, §7, §8

[11] = system: LOLMU; format: in vivo, Lolium multiflorum; conditions: a.i. g/ha: I.1 62.5, B.77 75, 20 days after treatment
Protocol: as §2, §3, §4, §5, §6, §7, §8

[12] = system: GALAP; format: in vivo, Galium aparine; parameters: key to herbicidal activity against GALAP found: rating on a scale from 0 to 100; conditions: post emergence
Outline: (§9)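 Post-emergence greenhouse test: plants in loamy sand, sprayed at 1–15 cm height with aqueous spray liquor from 10% emulsion concentrates, kept at 10-25 °C or 20-35 °C by species. Damage scored 0–100 (100 = complete destruction), usually 20 days after treatment. Expected additive effect E from Colby: E=X+Y−(X·Y/100).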

[13] = system: ERICA; format: in vivo, Conyza canadensis; parameters: key to herbicidal activity against ERICA found: rating on a scale from 0 to 100; conditions: post emergence
Outline: as §1

[14] = system: VIOAR; format: in vivo, Viola arvensis; parameters: key to herbicidal activity against VIOAR found / herbicidal activity against VIOLA found: rating on a scale from 0 to 100; conditions: post emergence
Outline: as §9

[15] = system: POLCO; format: in vivo, Polygonum convolvulus; parameters: key to herbicidal activity against POLCO found: rating on a scale from 0 to 100; conditions: post emergence
Outline: as §9

[16] = system: SASKR; format: in vivo, Salsola kali; parameters: key: scale 0 to 100
Protocol: as §2, §3, §4, §5, §6, §7, §8

[17] = system: PAPRH; format: in vivo, Papaver rhoeas; parameters: key: rating on a scale from 0 to 100
Outline: as §1

[18] = system: POLAV; format: in vivo, Polygonum aviculare; parameters: key: rating on a scale from 0 to 100
Protocol: as §2, §3, §4, §5, §6, §7, §8

[19] = system: STEME; format: in vivo, Stellaria media; parameters: key: scale 0 to 100; conditions: a.i. g/ha: I.1 31.25, B.190 62.5, 20 days after treatment
Protocol: as §2, §3, §4, §5, §6, §7, §8

[20] = system: IPOHE; format: in vivo, Ipomoea hederacea; parameters: key to herbicidal activity against IPOHE found: rating on a scale from 0 to 100; conditions: post emergence, 20 days after treatment
Outline: as §9

[21] = application rate a.i.: I.1 250 g/ha, B.193 15 g/ha, alone or as mixture (composition 1.193)
[22] = a.i. g/ha: I.1 31.25, B.76 225, 20 days after treatment
[23] = a.i. g/ha: I.1 62.5, B.76 225, 20 days after treatment
[24] = a.i. g/ha: I.1 62.5, B.77 75, 20 days after treatment
[25] = a.i. g/ha: I.1 62.5, B.80 250, 20 days after treatment
[26] = application rate a.i.: I.1 31.25 g/ha, B.84 (paraquat-dichloride) 17.5 g/ha, alone or as mixture (composition 1.84)
[27] = application rate a.i.: I.1 62.5 g/ha, B.84 (paraquat-dichloride) 17.5 g/ha, alone or as mixture (composition 1.84)
[28] = a.i. g/ha: I.1 15.6, B.190 62.5, 20 days after treatment
[29] = a.i. g/ha: I.1 31.25, B.190 62.5, 20 days after treatment
[30] = a.i. g/ha: I.1 31.25, bentazon Na 125, 20 days after treatment

Cc1ccccc1CO[C@H]1C[C@]2(C(C)C)CC[C@@]1(C)O2 (racemic) [B.193]
herbicidal activity against ALOMY found [1]: 0 | herbicidal activity against ECHCG found [2]: 40 | herbicidal activity against GERDI found [3, 21]: 40 | herbicidal activity against DIGSA found [4, 21]: 20

COc1cc(OC)nc(NC(=O)NS(=O)(=O)c2ncccc2C(=O)N(C)C)n1 [B.51, nicosulfuron]
pest or weed control at 20 g/ha ([5]; Matricaria chamomilla, post-emergence, 480 h, 20 g/ha a.i., read-out: herbicidal activity against MATCH found): 90% | herbicidal activity against AMBEL found ([6]; 20 g/ha a.i.): 80 | herbicidal activity against POLPE found [7]: 95

CC(C)c1ccc(NC(=O)N(C)C)cc1 [B.76, isoproturon]
herbicidal activity against AMARE found [8, 22]: 50% | herbicidal activity against CONAR found [9, 23]: 65% | herbicidal activity against CHEAL found [10, 22]: 65% | herbicidal activity against CHEAL found [10, 23]: 65% | herbicidal activity against DIGSA found [4, 22]: 30% | herbicidal activity against DIGSA found [4, 23]: 30%

CON(C)C(=O)Nc1ccc(Cl)c(Cl)c1 [B.77, linuron]
herbicidal activity against LOLMU found [11]: 35% | herbicidal activity against CONAR found [9, 24]: 50% | herbicidal activity against GALAP found [12, 24]: 40%

CCC(=O)Nc1ccc(Cl)c(Cl)c1 [B.80, propanil]
herbicidal activity against ERICA found [13, 25]: 65% | herbicidal activity against CONAR found [9, 25]: 20% | herbicidal activity against DIGSA found [4, 25]: 40%

C[n+]1ccc(-c2cc[n+](C)cc2)cc1 [B.84, paraquat-dichloride]
herbicidal activity against VIOAR found [14, 26]: 55 | herbicidal activity against VIOAR found [14, 27]: 55 | herbicidal activity against ERICA found [13, 26]: 35 | herbicidal activity against POLCO found [15, 27]: 30 | herbicidal activity against MATCH found [5, 27]: 80 | herbicidal activity against CONAR found [9, 27]: 10 | herbicidal activity against AMBEL found [6, 26]: 90 | herbicidal activity against SASKR found [16, 26]: 70 | herbicidal activity against GALAP found [12, 26]: 55

CS(=O)(=O)c1ccc(C(=O)C2C(=O)CCCC2=O)c([N+](=O)[O-])c1 [B.101, mesotrione]
pest or weed control at 9.375 g/ha ([13]; Erigeron canadensis, post-emergence, 480 h, 9.375 g/ha a.i., read-out: herbicidal activity against ERICA found): 80% | pest or weed control at 9.375 g/ha ([5]; Matricaria chamomilla, post-emergence, 480 h, 9.375 g/ha a.i., read-out: herbicidal activity against MATCH found): 75% | pest or weed control at 9.375 g/ha ([3]; Geranium dissectum, post-emergence, 480 h, 9.375 g/ha a.i., read-out: herbicidal activity against GERDI found): 0% | herbicidal activity against PAPRH found ([17]; 9.375 g/ha a.i.): 35 | herbicidal activity against AMBEL found ([6]; 9.375 g/ha a.i.): 80 | herbicidal activity against SASKR found ([16]; 9.375 g/ha a.i.): 75

Cc1ccc(NC(=O)N(C)C)cc1Cl [B.190, chlorotoluron]
herbicidal activity against AMARE found [8, 28]: 40% | herbicidal activity against AMARE found [8, 29]: 40% | herbicidal activity against POLAV found [18, 28]: 50% | herbicidal activity against POLCO found [15, 28]: 50% | herbicidal activity against POLCO found [15, 29]: 50% | herbicidal activity against STEME found [19]: 70% | herbicidal activity against IPOHE found ([20]; a.i. g/ha: I.1 15.6, B.190 62.5): 60% | herbicidal activity against IPOHE found ([20]; a.i. g/ha: I.1 31.25, B.190 62.5): 60% | herbicidal activity against CHEAL found [10, 28]: 95% | herbicidal activity against GERDI found [3, 29]: 60%

CC(C)N1C(=O)c2ccccc2[N-]S1(=O)=O.[Na+] [bentazon Na, bentazon-sodium]
herbicidal activity against AMARE found [8, 30]: 75% | herbicidal activity against POLAV found [18, 30]: 40% | herbicidal activity against POLCO found [15, 30]: 40%

Cc1nn(C)c(O)c1C(=O)c1ccc(C(F)(F)F)cc1S(C)(=O)=O [pyrasulfatole]
herbicidal activity against VIOAR found ([14]; 10 g/ha a.i.): 0 | herbicidal activity against VIOAR found ([14]; 20 g/ha a.i.): 40 | herbicidal activity against VIOAR found ([14]; 40 g/ha a.i.): 60 | herbicidal activity against POLAV found ([18]; 20 g/ha a.i.): 70 | herbicidal activity against MATCH found ([5]; 10 g/ha a.i.): 50 | herbicidal activity against MATCH found ([5]; 40 g/ha a.i.): 50 | herbicidal activity against CONAR found ([9]; 10 g/ha a.i.): 60 | herbicidal activity against CONAR found ([9]; 20 g/ha a.i.): 65 | herbicidal activity against CONAR found ([9]; 40 g/ha a.i.): 85 | herbicidal activity against GERDI found ([3]; 40 g/ha a.i.): 50 | herbicidal activity against PAPRH found ([17]; 10 g/ha a.i.): 50 | herbicidal activity against PAPRH found ([17]; 20 g/ha a.i.): 65 | herbicidal activity against PAPRH found ([17]; 40 g/ha a.i.): 65 | herbicidal activity against SASKAR found ([16]; 10 g/ha a.i.): 90
